Test results: patent EP1477174B1, “Radioactive arsenic-containing compounds and their uses in the treatment of tumors” (TTY Biopharm Company Limited, priority 2003, dated 2004)
Where “and” joins values, the source holds several entries; their conditions need not be identical. Equal entries are not always repeated.

Tests used:
[1] = system: relapsed acute promyelocytic leukemia; details: cited from earlier work
N1-S1 rat hepatoma cells [2] = test: Therapeutic effect assessment: continuous tail vein injection, rats with liver tumors; format: in vivo, Spawn-Dawley rats; design: key to Response: Increase in size of tumor (In%) is classified as "Poor Response"; decrease in size of tumorwithin 0%∼40% is classified as "MildResponse"; decrease in size of tumor to 50% or more or disappearance of tumor is classified as "Good Response."; details: for Response / Survival time: 0.45 mg/kg tail vein, continued for two weeks, single animals; for Effect on the inhibition of tumor growth (in words): continuous tail vein injection; for Survival of the rats (in words): tail vein injection, week 8
Method: (§1) When cultured to 1.5x10^6 cell/ml, 4x10^6 cell/0.06ml of N1-S1 cells were sampled and then implanted into Spawn-Dawley male rats (5-week-old, 150g) between the liver and liver capsule by surgery, and the wounds were closed by sutures. Rearing of the rats was continued for ten days, and ultrasonic scanning was used to detect any growth of liver tumor and tumor size. After scanning, animals that had developed liver tumors were used to conduct the experiments of tumor growth inhibition, and euthanasia was practiced on the rest of the rats.
The rats with liver tumors were given normal saline, an injection solution containing arsenic trioxide without neutron irradiation treatment (concentration: 1 mg/ml; animal injection dosage: 0.45 mg/kg), and the injection solution prepared in Example 1 which contained radioactive arsenic trioxide having subjected to neutron irradiation treatment(radioactivity range: 2.77-3.25 mCi/ml; concentration: 1 mg/ml; and animal injection dosage: 0.45 mg/kg), respectively, via tail vein injection, and the injection was continued for two weeks.
(§2) Before injection, the size of the liver tumors was examined by ultrasonic scanning. Ultrasonic scanning was conducted in the first week, the second week, and the fifth week, respectively, after start of the injection so as to observe the change in size of the tumor. Finally, the rats were sacrificed for observing whether there was metastasis.

liver tumor = details: 2 mg/kg for 10 consecutive days (Lin et al. 1999); cited from earlier work
[3] = system: human cervical cancer cells; details: in vitro and in vivo, cervical cancer (Yong-Jin Chun et al. 2002); cited from earlier work
N1-S1 rat hepatoma cells [4] = test: Therapeutic effect assessment: liver tumor direct injection, rats with liver tumors; format: in vivo, Spawn-Dawley rats; design: key to Response: Increase in Size of tumor (In%) is classified as "Poor Response"; decrease in size of tumorwithin 0%∼40% is classified as "MildResponse"; decrease in size of tumor to 50% or more or disappearance of tumor is classified as "Good Response."; details: for Response / Survival time: 0.45 mg/kg direct into liver tumor, single animals
Method: as §1
The rats with liver tumors were subjected to surgery. After the locations of the liver tumors were found, the tumors were directly injected with normal saline, an injection containing arsenic trioxide without neutron irradiation treatment (concentration: 1 mg/ml; animal injection dosage: 0.45 mg/kg), and the injection prepared in Example 1 which contained radioactive arsenic trioxide having subjected to neutron irradiation treatment (radiation activity range: 2.77-3.25 mCi/ml; concentration: 1 mg/ml of concentration; and animal injection dosage: 0.45 mg/kg), respectively, once every week, twice in total.
as §2, with “injection” for “injection so as”

N1-S1 rat hepatoma cells [5] = test: Therapeutic effect assessment: hepatic artery single injection, rats with liver tumors; format: in vivo, Spawn-Dawley rats; details: for Therapeutic effect (in words): hepatic artery single injection
Method: as §1
The blood vessels of the hepatic artery were dissected from the hepatic tissue of the rats by surgery, and normal saline, an injection solution containing arsenic trioxide without neutron irradiation treatment (concentration: 1 mg/ml; and animal injection dosage: 0.45 mg/kg), and the injection solution prepared in Example 1 which contained radioactive arsenic trioxide having subjected to neutron irradiation treatment (radioactivity range: 2.77-3.25 mCi/ml; concentration: 1 mg/ml; and animal injection dosage: 0.45 mg/kg dose), were injected respectively via the hepatic artery in single injections.
as §2, with “injection” for “injection so as”

[6] = Biodistribution test and radiation absorption dose (MIRD method) in rats with liver tumors; format: in vivo; details: for Radiation absorption dose, Intestine / Radiation absorption dose, Kidney / Radiation absorption dose, Liver / Radiation absorption dose, Lung / Radiation absorption dose, Muscle / Radiation absorption dose, Spleen / Radiation absorption dose, Tumor: 0.45 mg/kg
Method: The hepatic artery was dissected from the hepatic tissue of the rats by surgery. A PE-10 tube was introduced into the hepatic artery, and the test solution containing neutron-irradiated arsenic trioxide as prepared in Example 1 was injected into the hepatic artery. The PE-10 tube was removed after injection, and a surgical thread was used to bind and fix the blood vessels, followed by suturing of the wound.
The test injection solution containing neutron-irradiated arsenic trioxide as prepared in Example 1 was injected into the tail vein using a syringe with needle no. 25.
A fixed amount of radioactive arsenic trioxide (radioactivity range: 2.77-3.25 mCi/ml, concentration: 1 mg/ml, animal injection dose: 0.45 mg/kg) prepared in Example 1 was injected into the rats with liver tumors through the hepatic artery and tail vein, respectively.
The rats were sacrificed by taking a large amount of blood from the heart at hours 2, 4, 16, 24 and 48, respectively, after injection, and the blood, hearts, lungs, livers, spleens, kidneys, intestines, bladders, muscles, and tumors were removed. These tissues or organs were placed in respective tubes, and their irradiation intensity was measured by a gamma counter (Wallac 1470 WIZARD) . The content percentage of arsenic trioxide per each gram of the tissue or organ was calculated using standard curve regression. There were two or three experimented rats in each experimental group.
Radioactive arsenic trioxide was injected respectively into the tail vein and hepatic artery of the rats by I.V. and I.H. The dosage was calculated using MIRD method, and the residence time in each of the organs and the tumors was calculated using Excel software. Finally, the radiation absorption dose in each of the organs or tissues and the tumors was calculated using MIROSE 3 software. Table 3. Radiation absorption dose in each of the organs or tissues and the tumors after injection of radioactive arsenic trioxide into the animals through the tail vein and hepatic artery, respectively, by I.V. and I.H.

[7] = 0.45 mg/kg hepatic artery single injection, single animals

Q: With S1[As]2S[As]3S[As]2S[As]13 [tetraarsenic tetraslfide] as the compound, how does the complete remission rates ([1]; other arsenic-containing substances (Wang Z.Y. 2001)) read?
A: 84.9%

Q: For arsenic trioxide [reference compound], which Response (N1-S1 rat hepatoma cells [2]) is on record?
A: Poor (3×) and Mild (decrease in size of tumorwithin 0%∼40% is classified as "MildResponse") (2×)

Q: What about the “Survival time” value (N1-S1 rat hepatoma cells [2]) of the same compound?
A: 14 day (2×) and 42 day and 7 day and 40 day

Q: And the “Effect on the inhibition of tumor growth (in words)” value (N1-S1 rat hepatoma cells [2])?
A: not significant

Q: What about the “Survival of the rats (in words)” value (N1-S1 rat hepatoma cells [2]) of the same compound?
A: still alive in week 8

Q: And the “life of the mice extended to” value (liver tumor)?
A: 127.2%

Q: What about the “Effect of combination with other drugs (in words)” value ([1]; combination with other drugs (such as GM-CSF), relapsed or ATRA resistant acute promyelocytic leukemia (Muto A et al. 2001)) of the same compound?
A: synergistic therapeutic effect

Q: What about the “complete remission (CR) rate” value ([1]; intravenously at a dose of 10 mg/d, relapsed acute promyelocytic leukemia (Shen Z.X. et al. 1997)) of the same compound?
A: 90%

Q: And the complete remission rate ([1]; low-dose, intravenously, daily dose of 0.08 mg/kg for 28 days (Shen Y et al. 2001))?
A: 80%

Q: And the “Effect of combined treatment with ionizing radiation (in words)” value [3]?
A: synergistic effect

Q: And the Response (N1-S1 rat hepatoma cells [4])?
A: Poor and Good (decrease in size of tumor to 50% or more or disappearance of tumor is classified as "Good Response.") and Mild (decrease in size of tumorwithin 0%∼40% is classified as "MildResponse")

Q: And the “Survival time” value (N1-S1 rat hepatoma cells [4])?
A: >30 days

Q: What about the Response (N1-S1 rat hepatoma cells [5]; [7]) of the same compound?
A: Mild (decrease in size of tumorwithin 0%∼40% is classified as "MildResponse") (2×) and Poor (2×)

Q: And the “Survival time” value (N1-S1 rat hepatoma cells [5]; [7])?
A: >42 day (2×) and 36 day and 39 day

Q: And the “Therapeutic effect (in words)” value (N1-S1 rat hepatoma cells [5])?
A: not satisfactory

Q: For radioactive arsenic trioxide, which Response (N1-S1 rat hepatoma cells [2]) is on record?
A: Good (decrease in size of tumor to 50% or more or disappearance of tumor is classified as "Good Response.")

Q: What about the “Survival time” value (N1-S1 rat hepatoma cells [2]) of the same compound?
A: >56 days

Q: And the “Effect on the inhibition of tumor growth (in words)” value (N1-S1 rat hepatoma cells [2])?
A: most noticeable

Q: And the “Survival of the rats (in words)” value (N1-S1 rat hepatoma cells [2])?
A: all alive in week 8

Q: What about the “Radiation absorption dose, Intestine” value ([6]; IH (hepatic artery)) of the same compound?
A: 0.23 mGy/MBq

Q: What about the “Radiation absorption dose, Kidney” value ([6]; IH (hepatic artery)) of the same compound?
A: 0.28 mGy/MBq

Q: What about the “Radiation absorption dose, Liver” value ([6]; IH (hepatic artery)) of the same compound?
A: 0.21 mGy/MBq

Q: And the “Radiation absorption dose, Lung” value ([6]; IH (hepatic artery))?
A: 0.56 mGy/MBq

Q: What about the “Radiation absorption dose, Muscle” value ([6]; IH (hepatic artery)) of the same compound?
A: 0.12 mGy/MBq

Q: What about the “Radiation absorption dose, Spleen” value ([6]; IH (hepatic artery)) of the same compound?
A: 0.95 mGy/MBq

Q: What about the “Radiation absorption dose, Tumor” value ([6]; IH (hepatic artery)) of the same compound?
A: 21 mGy/MBq

Q: And the “Radiation absorption dose, Intestine” value ([6]; IV (tail vein))?
A: 0.16 mGy/MBq

Q: What about the “Radiation absorption dose, Kidney” value ([6]; IV (tail vein)) of the same compound?
A: 0.25 mGy/MBq

Q: What about the “Radiation absorption dose, Liver” value ([6]; IV (tail vein)) of the same compound?
A: 0.13 mGy/MBq

Q: What about the “Radiation absorption dose, Lung” value ([6]; IV (tail vein)) of the same compound?
A: 0.47 mGy/MBq

Q: And the “Radiation absorption dose, Muscle” value ([6]; IV (tail vein))?
A: 0.06 mGy/MBq

Q: What about the “Radiation absorption dose, Spleen” value ([6]; IV (tail vein)) of the same compound?
A: 0.76 mGy/MBq

Q: What about the “Radiation absorption dose, Tumor” value ([6]; IV (tail vein)) of the same compound?
A: 4.26 mGy/MBq

Q: What about the “Contents of the radioactive arsenic trioxide in the heart, the lung, and the spleen” value ([6]; hepatic artery and tail vein injection, hours 2-48 (Figure 3)) of the same compound?
A: 1-3 % ID/g

Q: What about the Response (N1-S1 rat hepatoma cells [4]) of the same compound?
A: Good (decrease in size of tumor to 50% or more or disappearance of tumor is classified as "Good Response.")

Q: And the “Survival time” value (N1-S1 rat hepatoma cells [4])?
A: >30 days

Q: What about the “Change of tumor size (in words)” value (N1-S1 rat hepatoma cells [4]; direct injection into the liver tumors, 4 weeks) of the same compound?
A: the tumors in all of the animals shrank

Q: And the Response (N1-S1 rat hepatoma cells [5]; [7])?
A: Good (decrease in size of tumor to 50% or more or disappearance of tumor is classified as "Good Response.")

Q: What about the “Survival time” value (N1-S1 rat hepatoma cells [5]; [7]) of the same compound?
A: >42 days

Q: What about the “Tumor size After injection Week 2” value (N1-S1 rat hepatoma cells [5]; [7]) of the same compound?
A: Disappeared

Q: And the “Tumor size After injection Week 5” value (N1-S1 rat hepatoma cells [5]; [7])?
A: Disappeared

Q: And the “Therapeutic effect (in words)” value (N1-S1 rat hepatoma cells [5])?
A: complete disappearance of the tumors in some of the animals 2 weeks after injection
